The results in this text go back to paper PMC10175918 (Communications Biology, 2023).

What all share (assay): TGFα-shedding assay-based GPCR screening with chimeric Gα subunit proteins
What all share (type): cell-based

In test [1] the target is T1, 348 GPCRs (Homo sapiens, UniProt Q14416).
T1 construct: expressed in transfected cells; host or cells: HEK293A
The conditions noted are these: 10µM, Favipiravir 100μM.

Test [2] has as its target T2, 348 GPCRs (Homo sapiens, UniProt P30411).
T2 sequence (P30411 1-391): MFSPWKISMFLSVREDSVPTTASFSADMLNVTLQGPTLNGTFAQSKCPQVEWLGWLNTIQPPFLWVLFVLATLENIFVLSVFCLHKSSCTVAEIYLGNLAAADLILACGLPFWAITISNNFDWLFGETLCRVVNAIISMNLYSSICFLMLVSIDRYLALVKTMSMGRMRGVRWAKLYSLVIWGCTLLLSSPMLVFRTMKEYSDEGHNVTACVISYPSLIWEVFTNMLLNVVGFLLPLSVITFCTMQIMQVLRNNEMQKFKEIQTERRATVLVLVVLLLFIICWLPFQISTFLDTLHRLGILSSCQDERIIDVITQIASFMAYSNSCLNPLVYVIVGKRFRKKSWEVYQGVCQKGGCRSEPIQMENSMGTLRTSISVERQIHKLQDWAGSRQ
To be noted: 10µM, Favipiravir 100μM.

Test [3] deals with T3, 348 GPCRs (Homo sapiens, UniProt P35408).
T3 construct: expressed in transfected cells; host or cells: HEK293A
To be noted: 10µM, Favipiravir 100μM.

The target in test [4] is 348 GPCRs (Homo sapiens, UniProt P41145). To be noted: read-out: % GPCR activation compared to TPA, OPRK1 (opioid receptor, kappa 1 (KOR)); 10µM, Favipiravir 100μM.
The target of test [5] is T4, 348 GPCRs (Homo sapiens, UniProt P30518).
T4 construct: expressed in transfected cells; host or cells: HEK293A

For test [6], the target named is T5, 348 GPCRs (Homo sapiens, UniProt Q01718).
T5 construct: expressed in transfected cells; host or cells: HEK293A

For test [7], the target named is T6, 348 GPCRs (Homo sapiens, UniProt P08913).
T6 construct: expressed in transfected cells; host or cells: HEK293A
T6 sequence (P08913 1-465): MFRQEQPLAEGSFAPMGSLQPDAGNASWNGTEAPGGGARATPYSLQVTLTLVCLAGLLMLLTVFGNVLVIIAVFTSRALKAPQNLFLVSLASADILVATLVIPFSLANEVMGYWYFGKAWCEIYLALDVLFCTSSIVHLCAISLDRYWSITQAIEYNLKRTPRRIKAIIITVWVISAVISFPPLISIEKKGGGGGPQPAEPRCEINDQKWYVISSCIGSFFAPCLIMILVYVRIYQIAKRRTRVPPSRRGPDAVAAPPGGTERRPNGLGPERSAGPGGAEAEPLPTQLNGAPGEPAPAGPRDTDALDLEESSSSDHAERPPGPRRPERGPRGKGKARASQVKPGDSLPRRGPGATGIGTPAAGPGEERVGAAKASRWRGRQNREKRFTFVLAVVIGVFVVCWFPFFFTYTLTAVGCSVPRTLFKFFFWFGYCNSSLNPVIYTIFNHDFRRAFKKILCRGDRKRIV

For test [8], the target named is 348 GPCRs (Homo sapiens, UniProt P46093).
Test [9] addresses T7, 348 GPCRs (Homo sapiens, UniProt Q9NS66).
T7 construct: expressed in transfected cells; host or cells: HEK293A
The conditions noted are these: 10µM, Favipiravir 100μM.

For test [10], the target named is T8, 348 GPCRs (Homo sapiens, UniProt Q6QNK2).
T8 construct: expressed in transfected cells; host or cells: HEK293A
T8 sequence (Q6QNK2 26-874): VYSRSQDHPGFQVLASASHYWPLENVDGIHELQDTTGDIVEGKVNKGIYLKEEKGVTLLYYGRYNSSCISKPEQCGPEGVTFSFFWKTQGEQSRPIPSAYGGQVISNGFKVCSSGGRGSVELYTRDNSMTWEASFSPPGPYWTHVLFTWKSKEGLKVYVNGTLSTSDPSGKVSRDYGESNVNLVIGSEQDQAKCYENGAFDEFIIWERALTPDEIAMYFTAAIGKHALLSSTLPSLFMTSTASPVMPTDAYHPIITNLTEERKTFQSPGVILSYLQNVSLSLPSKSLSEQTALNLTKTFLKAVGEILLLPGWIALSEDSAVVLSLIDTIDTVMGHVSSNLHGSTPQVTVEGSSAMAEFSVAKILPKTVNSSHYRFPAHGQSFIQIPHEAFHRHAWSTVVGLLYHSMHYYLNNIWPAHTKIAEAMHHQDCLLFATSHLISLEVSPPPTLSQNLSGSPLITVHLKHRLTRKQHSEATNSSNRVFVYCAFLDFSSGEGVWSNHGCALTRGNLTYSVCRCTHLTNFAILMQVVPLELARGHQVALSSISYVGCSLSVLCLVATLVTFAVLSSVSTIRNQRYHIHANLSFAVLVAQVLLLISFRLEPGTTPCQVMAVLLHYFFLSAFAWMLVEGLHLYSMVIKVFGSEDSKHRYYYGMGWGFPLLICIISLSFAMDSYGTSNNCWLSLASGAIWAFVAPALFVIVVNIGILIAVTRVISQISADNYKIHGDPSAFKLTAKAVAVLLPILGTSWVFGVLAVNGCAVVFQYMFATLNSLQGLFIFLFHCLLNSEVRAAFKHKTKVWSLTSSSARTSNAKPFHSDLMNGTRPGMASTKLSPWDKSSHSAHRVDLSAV
To be noted: 10µM, Favipiravir 100μM.

In test [11] the target is 348 GPCRs (Homo sapiens, UniProt P25021). The conditions noted are these: 10µM, Favipiravir 100μM.
[12] abbreviates: read-out: % GPCR activation compared to TPA, GRM2 (glutamate metabotropic receptor 2).
Setting [13] is: read-out: % GPCR activation compared to TPA, B2 (bradykinin receptor B2).
[14] abbreviates: read-out: % GPCR activation compared to TPA, EP4 (prostaglandin E receptor 4).
Setting [15] is: read-out: % GPCR activation compared to TPA, GPCR V2 (arginine vasopressin receptor 2).
Setting [16] is: read-out: % GPCR activation compared to TPA, GPCR MC2R (melanocortin 2 receptor).
Setting [17] is: read-out: % GPCR activation compared to TPA, GPCR α2A (adrenoceptor alpha 2A).
The mark [18] stands for this setting: read-out: % GPCR activation compared to TPA, GPCR GPR4 (G Protein-Coupled Receptor 4).
Setting [19] is: read-out: % GPCR activation compared to TPA, GPR173 (G protein-coupled receptor 173).
The mark [20] stands for this setting: read-out: % GPCR activation compared to TPA, GPR133 (G protein-coupled receptor 133).
[21] abbreviates: read-out: % GPCR activation compared to TPA, H2 (histamine receptor H2).
[22] abbreviates: GRM2 (glutamate metabotropic receptor 2), read-out: % GPCR activation compared to TPA.
Where [23] appears, read: B2 (bradykinin receptor B2), read-out: % GPCR activation compared to TPA.
Setting [24] is: EP4 (prostaglandin E receptor 4), read-out: % GPCR activation compared to TPA.
[25] abbreviates: GPR173 (G protein-coupled receptor 173), read-out: % GPCR activation compared to TPA.
Setting [26] is: GPR133 (G protein-coupled receptor 133), read-out: % GPCR activation compared to TPA.
Setting [27] is: H2 (histamine receptor H2), read-out: % GPCR activation compared to TPA.
The mark [28] stands for this setting: GPCR V2 (arginine vasopressin receptor 2), read-out: % GPCR activation compared to TPA.
Setting [29] is: GPCR MC2R (melanocortin 2 receptor), read-out: % GPCR activation compared to TPA.
Where [30] appears, read: GPCR α2A (adrenoceptor alpha 2A), read-out: % GPCR activation compared to TPA.
Where [31] appears, read: GPCR GPR4 (G Protein-Coupled Receptor 4), read-out: % GPCR activation compared to TPA.

SMILES strings stand for the structures. Where two headings read alike, the source gives them in different places.

Chain of 348 GPCRs (Homo sapiens, UniProt P25021) (P25021 whole entry): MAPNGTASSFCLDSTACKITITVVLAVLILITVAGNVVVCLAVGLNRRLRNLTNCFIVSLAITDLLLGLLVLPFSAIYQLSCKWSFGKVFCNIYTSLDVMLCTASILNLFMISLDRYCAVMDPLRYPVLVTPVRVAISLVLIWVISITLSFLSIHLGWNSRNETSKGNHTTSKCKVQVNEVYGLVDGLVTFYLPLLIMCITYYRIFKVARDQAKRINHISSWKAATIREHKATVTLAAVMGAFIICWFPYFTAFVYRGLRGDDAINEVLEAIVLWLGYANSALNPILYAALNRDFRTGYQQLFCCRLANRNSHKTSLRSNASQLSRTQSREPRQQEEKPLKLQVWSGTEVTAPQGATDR
Chain of 348 GPCRs (Homo sapiens, UniProt P46093) (P46093 whole entry): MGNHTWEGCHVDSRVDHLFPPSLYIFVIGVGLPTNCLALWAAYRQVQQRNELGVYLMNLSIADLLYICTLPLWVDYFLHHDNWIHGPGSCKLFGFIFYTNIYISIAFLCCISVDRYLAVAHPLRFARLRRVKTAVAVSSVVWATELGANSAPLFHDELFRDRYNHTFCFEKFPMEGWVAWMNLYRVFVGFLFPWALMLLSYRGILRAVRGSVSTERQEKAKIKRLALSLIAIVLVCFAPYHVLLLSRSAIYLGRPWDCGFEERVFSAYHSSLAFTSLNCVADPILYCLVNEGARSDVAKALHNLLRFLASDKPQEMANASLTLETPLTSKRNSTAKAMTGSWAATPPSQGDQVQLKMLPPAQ
T7 sequence (Q9NS66 whole entry): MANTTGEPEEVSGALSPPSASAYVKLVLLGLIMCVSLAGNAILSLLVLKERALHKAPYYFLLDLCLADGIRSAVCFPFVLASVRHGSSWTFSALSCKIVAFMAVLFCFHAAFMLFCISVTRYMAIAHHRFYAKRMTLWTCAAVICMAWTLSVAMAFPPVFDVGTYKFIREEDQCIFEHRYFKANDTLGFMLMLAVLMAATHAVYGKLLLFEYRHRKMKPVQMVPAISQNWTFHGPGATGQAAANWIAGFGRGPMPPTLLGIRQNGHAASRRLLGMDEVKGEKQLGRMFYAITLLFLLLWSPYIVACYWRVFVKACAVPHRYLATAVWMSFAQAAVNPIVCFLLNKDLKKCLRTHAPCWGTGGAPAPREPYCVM
T4 sequence (P30518 whole entry): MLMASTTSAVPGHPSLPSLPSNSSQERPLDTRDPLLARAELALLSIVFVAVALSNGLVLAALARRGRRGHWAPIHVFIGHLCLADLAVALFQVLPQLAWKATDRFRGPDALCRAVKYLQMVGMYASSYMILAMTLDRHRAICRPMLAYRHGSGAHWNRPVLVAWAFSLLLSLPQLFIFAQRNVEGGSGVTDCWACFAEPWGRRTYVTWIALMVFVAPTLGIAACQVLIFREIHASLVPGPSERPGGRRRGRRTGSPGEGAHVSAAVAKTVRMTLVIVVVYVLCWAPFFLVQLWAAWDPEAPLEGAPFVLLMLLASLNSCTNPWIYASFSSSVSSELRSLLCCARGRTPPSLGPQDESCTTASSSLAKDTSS
T5 sequence (Q01718 whole entry): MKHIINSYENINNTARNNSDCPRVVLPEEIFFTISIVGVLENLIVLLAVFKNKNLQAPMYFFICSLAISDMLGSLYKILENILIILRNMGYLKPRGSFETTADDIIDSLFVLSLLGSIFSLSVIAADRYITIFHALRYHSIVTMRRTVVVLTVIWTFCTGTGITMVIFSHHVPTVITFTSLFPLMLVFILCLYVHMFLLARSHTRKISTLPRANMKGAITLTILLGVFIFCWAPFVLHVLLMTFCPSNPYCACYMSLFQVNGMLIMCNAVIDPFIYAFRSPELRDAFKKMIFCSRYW
Chain of 348 GPCRs (Homo sapiens, UniProt P41145) (P41145 whole entry): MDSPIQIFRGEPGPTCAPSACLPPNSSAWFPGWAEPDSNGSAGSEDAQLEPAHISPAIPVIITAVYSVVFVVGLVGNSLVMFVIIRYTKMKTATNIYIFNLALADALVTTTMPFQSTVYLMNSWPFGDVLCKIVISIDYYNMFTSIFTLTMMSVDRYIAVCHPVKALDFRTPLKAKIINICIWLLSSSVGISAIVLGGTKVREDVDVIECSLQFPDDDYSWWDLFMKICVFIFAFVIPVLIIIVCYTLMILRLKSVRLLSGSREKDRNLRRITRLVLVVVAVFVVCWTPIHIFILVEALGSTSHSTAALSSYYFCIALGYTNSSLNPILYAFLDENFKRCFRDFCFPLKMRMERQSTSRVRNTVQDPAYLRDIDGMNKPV
T3 sequence (P35408 whole entry): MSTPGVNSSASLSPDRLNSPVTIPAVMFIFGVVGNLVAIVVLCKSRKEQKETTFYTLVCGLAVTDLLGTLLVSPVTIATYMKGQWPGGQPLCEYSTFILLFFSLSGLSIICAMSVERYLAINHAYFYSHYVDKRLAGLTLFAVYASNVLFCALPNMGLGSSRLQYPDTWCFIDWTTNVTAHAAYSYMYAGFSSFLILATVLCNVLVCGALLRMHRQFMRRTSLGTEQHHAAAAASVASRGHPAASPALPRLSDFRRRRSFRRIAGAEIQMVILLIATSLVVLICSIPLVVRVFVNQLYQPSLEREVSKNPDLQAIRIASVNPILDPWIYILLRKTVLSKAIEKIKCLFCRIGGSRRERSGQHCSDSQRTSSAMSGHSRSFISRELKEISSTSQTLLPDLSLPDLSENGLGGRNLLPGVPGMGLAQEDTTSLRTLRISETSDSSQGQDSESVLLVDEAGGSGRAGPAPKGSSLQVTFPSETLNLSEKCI
T1 sequence (Q14416 19-872): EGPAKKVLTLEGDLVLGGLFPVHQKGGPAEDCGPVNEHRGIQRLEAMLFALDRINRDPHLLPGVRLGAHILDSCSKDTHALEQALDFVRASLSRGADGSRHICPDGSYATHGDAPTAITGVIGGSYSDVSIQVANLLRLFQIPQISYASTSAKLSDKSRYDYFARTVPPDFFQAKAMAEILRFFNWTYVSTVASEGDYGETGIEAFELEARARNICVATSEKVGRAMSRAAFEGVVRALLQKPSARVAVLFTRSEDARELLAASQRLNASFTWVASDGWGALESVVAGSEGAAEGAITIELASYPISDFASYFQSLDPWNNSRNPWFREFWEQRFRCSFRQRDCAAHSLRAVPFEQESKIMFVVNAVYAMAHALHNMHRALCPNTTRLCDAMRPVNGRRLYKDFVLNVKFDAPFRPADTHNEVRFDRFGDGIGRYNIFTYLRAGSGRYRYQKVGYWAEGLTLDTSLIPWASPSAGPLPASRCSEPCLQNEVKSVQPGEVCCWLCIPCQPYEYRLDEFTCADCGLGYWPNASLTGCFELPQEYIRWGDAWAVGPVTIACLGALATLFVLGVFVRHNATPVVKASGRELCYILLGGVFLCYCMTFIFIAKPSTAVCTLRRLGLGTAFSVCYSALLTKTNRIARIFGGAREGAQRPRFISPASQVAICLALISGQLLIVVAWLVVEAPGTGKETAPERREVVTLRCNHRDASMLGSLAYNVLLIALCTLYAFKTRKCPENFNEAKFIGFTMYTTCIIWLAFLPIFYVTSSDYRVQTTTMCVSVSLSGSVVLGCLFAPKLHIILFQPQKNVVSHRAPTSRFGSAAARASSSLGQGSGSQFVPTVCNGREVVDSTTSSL

On to `CC(C)OC(=O)[C@H](C)N[P@](=O)(OC[C@H]1O[C@@H](n2ccc(=O)[nH]c2=O)[C@](C)(F)[C@@H]1O)Oc1ccccc1` [sofosbuvir], for which the activation at 10 µM at 348 GPCRs [1] (setting [12]) is -2.27%; on 348 GPCRs [2] (setting [13]) it was 0.561%; on 348 GPCRs [3] (setting [14]) it was 0.58%; at 348 GPCRs [5] (setting [15]) it was -0.417%; on 348 GPCRs [6] (setting [16]), -3.14%; on 348 GPCRs [7] (setting [17]), -2.48%. Further, the activation at 10 µM was 1.94% on 348 GPCRs [8] (setting [18]), -0.581% on 348 GPCRs [9] (setting [19]) and -0.476% at 348 GPCRs [11] (setting [21]). Further, the activation at 100 µM is -1.11% on 348 GPCRs [4] and -82.3% at 348 GPCRs [10] (setting [20]).

For the compound `NC(=O)c1nc(F)cnc1O` [favipiravir, 6-fluoro-3-hydroxy-2-pyrazinecarboxamide], the activation at 10 µM was -0.721% at 348 GPCRs [1] (setting [22]); 1.08% at 348 GPCRs [2] (setting [23]); -1.55% on 348 GPCRs [3] (setting [24]); 0.0591% on 348 GPCRs [9] (setting [25]); 0.663% at 348 GPCRs [11] (setting [27]). In addition, the activation at 100 µM is -1.65% on 348 GPCRs [4]; 1.41% at 348 GPCRs [5] (GPCR V2 (arginine vasopressin receptor 2), 100μM, read-out: % GPCR activation compared to TPA); -0.849% at 348 GPCRs [6] (GPCR MC2R (melanocortin 2 receptor), 100μM, read-out: % GPCR activation compared to TPA); 1.73% at 348 GPCRs [7] (GPCR α2A (adrenoceptor alpha 2A), 100μM, read-out: % GPCR activation compared to TPA); -3.16% on 348 GPCRs [8] (GPCR GPR4 (G Protein-Coupled Receptor 4), 100μM, read-out: % GPCR activation compared to TPA); 2.84% on 348 GPCRs [10] (setting [26]).

Regarding `CCC(CC)COC(=O)[C@H](C)N[P@](=O)(OC[C@H]1O[C@@](C#N)(c2ccc3c(N)ncnn23)[C@H](O)[C@@H]1O)Oc1ccccc1` [remdesivir], the activation at 10 µM at 348 GPCRs [1] (setting [12]) was 1.1%; at 348 GPCRs [2] (setting [13]), 1.57%; at 348 GPCRs [3] (setting [14]) it was 4.74%; at 348 GPCRs [5] (setting [15]) it was 1.36%; at 348 GPCRs [6] (setting [16]) it was -1.06%; on 348 GPCRs [7] (setting [17]) it was 8.13%. Also, the activation at 10 µM is -1.37% at 348 GPCRs [8] (setting [18]), 1.49% on 348 GPCRs [9] (setting [19]) and 2.05% at 348 GPCRs [11] (setting [21]). The activation at 100 µM at 348 GPCRs [4] is 6.17%; on 348 GPCRs [10] (setting [20]), 3.45%.

As for `N#C[C@@]1(c2ccc3c(N)ncnn23)O[C@H](CO)[C@@H](O)[C@H]1O` [GS441524], the activation at 10 µM at 348 GPCRs [1] (setting [22]) was 0.673%; on 348 GPCRs [2] (setting [23]) it was -3%; on 348 GPCRs [3] (setting [24]) it was -2.87%; at 348 GPCRs [5] (setting [28]) it was -0.765%; on 348 GPCRs [6] (setting [29]) it was -0.688%; on 348 GPCRs [7] (setting [30]) it was -0.949%. Also, the figures for the activation at 10 µM at 348 GPCRs [8] (setting [31]), at 348 GPCRs [9] (setting [25]) and at 348 GPCRs [11] (setting [27]) were -0.661%, 0.119% and -1.14%, respectively. Besides, the figures for the activation at 100 µM on 348 GPCRs [4] and at 348 GPCRs [10] (setting [26]) were -1.93% and 3.32%, respectively.

With `CC(C)C(=O)OC[C@H]1O[C@@H](n2ccc(NO)nc2=O)[C@H](O)[C@@H]1O` [molnupiravir], the activation at 10 µM is 0.98% at 348 GPCRs [1] (setting [22]); 1.04% on 348 GPCRs [2] (setting [23]); 0.931% at 348 GPCRs [3] (setting [24]); -0.988% at 348 GPCRs [5] (setting [28]); -0.524% at 348 GPCRs [6] (setting [29]); -0.00545% at 348 GPCRs [7] (setting [30]). Further, the values for the activation at 10 µM on 348 GPCRs [8] (setting [31]), on 348 GPCRs [9] (setting [25]) and on 348 GPCRs [11] (setting [27]) were -3.97%, -4.49% and -0.335%, respectively. Moreover, the activation at 100 µM at 348 GPCRs [4] was -1.39%; at 348 GPCRs [10] (setting [26]), -83.1%.
